Key:
[1] = test system: HepG2; assay: Cytotoxicity against human HepG2 cells assessed as growth inhibition after 72 hrs by MTT assay; assay type: functional, cell-based; details: HepG2, 72 h
[2] = test system: HT-29; assay: Cytotoxicity against human HT-29 cells assessed as growth inhibition after 72 hrs by MTT assay; assay type: functional, cell-based; details: HT-29, 72 h
[3] = test system: HT-29; assay: Potency index, ratio of oleanolic acid IC50 to compound IC50 for human HT-29 cells; assay type: functional
[4] = test system: HepG2; assay: Potency index, ratio of oleanolic acid IC50 to compound IC50 for human HepG2 cells; assay type: functional
[5] = test system: B16-F10; assay: Potency index, ratio of oleanolic acid IC50 to compound IC50 for mouse B16F10 cells; assay type: functional
[6] = Cytotoxicity against mouse B16F10 cells assessed as growth inhibition after 72 hrs by MTT assay; assay type: functional, cell-based; details: B16-F10, 72 h
[7] = test system: HT-29; assay: Potency index, ratio of maslinic acid IC50 to compound IC50 for human HT-29 cells; assay type: functional
[8] = test system: B16-F10; assay: Potency index, ratio of maslinic acid IC50 to compound IC50 for mouse B16F10 cells; assay type: functional
[9] = test system: HepG2; assay: Potency index, ratio of maslinic acid IC50 to compound IC50 for human HepG2 cells; assay type: functional

| SMILES | IC50 [1] | IC50 [2] | Ratio IC50 [3] | Ratio IC50 [4] | Ratio IC50 [5] | IC50 [6] | Ratio IC50 [7] | Ratio IC50 [8] | Ratio IC50 [9] |
| --- | --- | --- | --- | --- | --- | --- | --- | --- | --- |
| CC(=O)OC1CC[C@]2(C)[C@H]3CC=C4[C@@H]5CC(C)(C)CC[C@]5(C(=O)NCCCOCCOCCOCCCNC(=O)[C@]56CCC(C)(C)C[C@H]5C5=CC[C@@H]7[C@@]8(C)CC[C@H](OC(C)=O)C(C)(C)[C@@H]8CC[C@@]7(C)[C@]5(C)CC6)CC[C@@]4(C)[C@]3(C)CC[C@H]2C1(C)C (single isomer, unassigned) | 24.4 µM | 83.2 µM | 5.2 | 8.7 | 0.9 | 119 µM | – | – | – |
| CC(=O)O[C@H]1CC[C@]2(C)[C@H]3CC=C4[C@@H]5CC(C)(C)CC[C@]5(C(=O)O)CC[C@@]4(C)[C@]3(C)CC[C@H]2C1(C)C [ACETYL OLEANOLIC ACID] | 104 µM | 148 µM | 2.9 | 2 | 1.6 | – | – | – | – |
| CC1(C)CC[C@]2(C(=O)NCCCOCCOCCOCCCNC(=O)[C@]34CCC(C)(C)C[C@H]3C3=CC[C@@H]5[C@@]6(C)CC[C@H](O)C(C)(C)[C@@H]6CC[C@@]5(C)[C@]3(C)CC4)CC[C@]3(C)C(=CC[C@@H]4[C@@]5(C)CC[C@H](O)C(C)(C)[C@@H]5CC[C@]43C)[C@@H]2C1 | 66.7 µM | 85.6 µM | 5 | 3.2 | 0.9 | 123 µM | – | – | – |
| CC(=O)O[C@H]1CC[C@]2(C)[C@H]3CC=C4[C@@H]5CC(C)(C)CC[C@]5(C(=O)NCCCOCCOCCOCCCN)CC[C@@]4(C)[C@]3(C)CC[C@H]2C1(C)C | 68.7 µM | 138 µM | 3.1 | 3.1 | 0.5 | 201 µM | – | – | – |
| CC1(C)CC[C@]2(C(=O)O)CC[C@]3(C)C(=CC[C@@H]4[C@@]5(C)CC[C@H](O)C(C)(C)[C@@H]5CC[C@]43C)[C@@H]2C1 [OLEANOLIC_ACID] | 212 µM | 430 µM | – | – | – | – | – | – | – |
| CC1(C)CC[C@]2(C(=O)OCc3ccccc3)CC[C@]3(C)C(=CC[C@@H]4[C@@]5(C)C[C@@H](O)[C@H](O)C(C)(C)[C@@H]5CC[C@]43C)[C@@H]2C1 [BENZYL MASLINATE] | 17 µM | 15.3 µM | – | – | – | 36.2 µM | 2.1 | 1 | 5.8 |
| CC1(C)CC[C@]2(C(=O)O)CC[C@]3(C)C(=CC[C@@H]4[C@@]5(C)C[C@@H](O)[C@H](O)C(C)(C)[C@@H]5CC[C@]43C)[C@@H]2C1 [MASLINIC ACID] | 99.2 µM | 32.2 µM | – | – | – | – | – | – | – |
| CC(=O)O[C@@H]1C[C@]2(C)[C@H]3CC=C4[C@@H]5CC(C)(C)CC[C@]5(C(=O)NCCCOCCOCCOCCCNC(=O)[C@]56CCC(C)(C)C[C@H]5C5=CC[C@@H]7[C@@]8(C)C[C@@H](OC(C)=O)[C@H](OC(C)=O)C(C)(C)[C@@H]8CC[C@@]7(C)[C@]5(C)CC6)CC[C@@]4(C)[C@]3(C)CC[C@H]2C(C)(C)[C@H]1OC(C)=O | 113 µM | 64.3 µM | – | – | – | 107 µM | 0.5 | 0.3 | 0.9 |
| CC1(C)CC[C@]2(C(=O)OCc3ccccc3)CC[C@]3(C)C(=CC[C@@H]4[C@@]5(C)CC[C@H](O)C(C)(C)[C@@H]5CC[C@]43C)[C@@H]2C1 | 38.7 µM | 67.1 µM | 6.4 | 5.5 | 2 | – | – | – | – |
| CC(=O)O[C@@H]1C[C@]2(C)[C@H]3CC=C4[C@@H]5CC(C)(C)CC[C@]5(C(=O)NCCCOCCOCCOCCCN)CC[C@@]4(C)[C@]3(C)CC[C@H]2C(C)(C)[C@H]1OC(C)=O | 176 µM | 130 µM | – | – | – | 104 µM | 0.2 | 0.3 | 0.6 |
| COCCOCCOCC(=O)O[C@H]1CC[C@]2(C)[C@H]3CC=C4[C@@H]5CC(C)(C)CC[C@]5(C(=O)OCc5ccccc5)CC[C@@]4(C)[C@]3(C)CC[C@H]2C1(C)C | 84.1 µM | 61.6 µM | 7 | 2.5 | 0.6 | 175 µM | – | – | – |
| CC1(C)CC[C@]2(C(=O)NCCCOCCOCCOCCCNC(=O)[C@]34CCC(C)(C)C[C@H]3C3=CC[C@@H]5[C@@]6(C)C[C@@H](O)[C@H](O)C(C)(C)[C@@H]6CC[C@@]5(C)[C@]3(C)CC4)CC[C@]3(C)C(=CC[C@@H]4[C@@]5(C)C[C@@H](O)[C@H](O)C(C)(C)[C@@H]5CC[C@]43C)[C@@H]2C1 | 96.7 µM | 82.8 µM | – | – | – | 118 µM | 0.4 | 0.3 | 1 |
| CC(=O)O[C@@H]1C[C@]2(C)[C@H]3CC=C4[C@@H]5CC(C)(C)CC[C@]5(C(=O)O)CC[C@@]4(C)[C@]3(C)CC[C@H]2C(C)(C)[C@H]1OC(C)=O | 50.2 µM | 69.1 µM | – | – | – | – | 0.5 | 0.8 | 2 |

— ChEMBL document CHEMBL3822440, “Semi-synthesis and antiproliferative evaluation of PEGylated pentacyclic triterpenes” (Eur J Med Chem, 2016)
